Measured values: US20170239212A1, “[…] AND USE THEREOF AS ANTIVIRAL AGENTS” (priority 2014, published 2017)
pEC50: −log10 of the molar value.

Key:
[1] = tested on: K-562 human myelocytic leukemia cell line; test: Proliferation of K-562 cells; format: cell-based; conditions: maximally effective concentration, 72 hours, vs DMSO control
Experimental: K562 cells were counted after 3 day treatment with different concentrations of PMA (0.1, 1, 10, 100, 1000 nM), bryostatin 1 (0.1, 1, 10, 100, 1000 nM), the bryologues MERLE 21, 22, or 23 (1, 10, 100, 1000, 5000 nM) or DMSO as control. The number of cells is presented as % of the DMSO-treated control. Data represent the means±SEM of three independent experiments.
K-562 cells, from the Biological Testing Branch, National Cancer Institute, NIH (Frederick, Md.), were grown under usual conditions in RPMI-1640, supplemented with 10% fetal bovine serum. 72 hours after treatment with different drugs or DMSO the cell number was determined using a Beckman particle counter (Beckman Coulter Inc., Fullerton, Calif.).

U937 cells = test: Attachment of U937 cells; format: cell-based, human; conditions: 72 hours; for Block of PMA-induced attachment of U937 cells: 10 nM PMA with different concentrations of compound; for Attachment of U937 cells (attached cells as percent of total): compound alone
Experimental: U937 cells (Sundstrom, C.; Nilsson, K.: Establishment and characterization of a human histiocytic lymphoma cell line (U-937). Int. J. Cancer 1976, 17: 565-577), purchased from ATCC (Manassas, Va.) and cultured in RPMI-1640 medium supplemented with 10% FBS (ATCC, Manassas, Va.), were plated in 35 mm dishes at a density of 2×10^5 living cells/ml and treated with different concentrations of the drugs or DMSO. After 72 hours, the number of cells in the supernatant (non-attached cells) and the number of attached cells (after trypsinization) were counted using a Beckman particle counter (Beckman Coulter Inc., Fullerton, Calif.). The number of attached cells is expressed as percent of total cells (FIGS. 8-10).
(§1) U937 cells were treated with PMA (0.1-100 nM), bryostatin 1 (1-1000 nM), the indicated compound (1-1000 nM), 10 nM PMA with different concentrations of bryostatin 1 (1-1000 nM) or 10 nM PMA with different concentrations of indicated compound (1-1000 nM) for 72 hours. The number of attached cells and total cells were counted and the attached cells were graphed as percent of total cells. The bars and error bars represent the average and the standard error of the mean of five independent experiment (FIGS. 8-10).
(§2) U937 cells (Sundstrom and Nilsson, 1976), purchased from ATCC (Manassas, Va.) and cultured in RPMI-1640 medium supplemented with 10% FBS (ATCC, Manassas, Va.), were plated in 35 mm dishes at a density of 1×10^5 living cells/ml and treated with different concentrations of the drugs or DMSO. After 72 hours, the number of cells in the supernatant (non-attached cells) and the number of attached cells (after trypsinization) were counted using a particle counter. The number of attached cells is expressed as percent of total cells.
U937 cells were treated with PMA (0.01-100 nM), bryostatin 1 (0.1-1000 nM), analogue 12 (MERLE 28) (0.1-1000 nM), 10 nM PMA with different concentrations of bryostatin 1 (0.1-1000 nM) or 10 nM PMA with different concentrations of analogue 12 (0.1-1000 nM). The number of attached cells and total cells were counted and the attached cells were graphed as percent of total cells. The bars and error bars represent the average and the standard error of the mean of at least three independent experiments.
as §2
as §1, with “at least three” for “five”, “experiments.” for “experiment (FIGS. 8-10).”

[2] = tested on: HIV long terminal repeat (LTR) promoter; test: HOS LTR stimulation assay (luciferase reporter); format: cell-based
Experimental: In the assay, non T cell derived human osteosarcoma (HOS) cells are transfected with a luciferase reporter under control of an HIV long terminal repeat (LTR) promoter. Compounds that stimulate the HIV LTR promoter will produce luciferase in a dose dependent manner.
(§3) Specifically, EC50 and CC50 values were determined in parallel using 10 concentrations of compound from 3 fold serial dilutions starting a 5 uM as the highest concentration. Cells and media were added to compounds with a final concentration of DMSO of 1% and incubated at 37° C., 5% CO2 for 24, 48 and 72 hours. EC50 was measured by induced luciferase activity detected by the use of the Steady-Glo® Luciferase reagent (PROMEGA) with an EnVision (Perkin-Elmer) plate reader. CC50 was determined by the dose dependent knock down of cellular ATP detected by the use of CellTiter-Glo® Luminescent Cell Viability reagent (PROMEGA) with an EnVision (Perkin-Elmer) plate reader.
The error bars represent the average and the standard error of the mean of at least three independent experiments.

[3] = tested on: human osteosarcoma (HOS) cells; test: HOS cell viability (CellTiter-Glo, cellular ATP); format: cell-based; design: unit not given here; conditions: knock down of cellular ATP
Experimental: as §3

[4] = biological target: HIV long terminal repeat (LTR) promoter; test: in vitro; format: cell-based; conditions: Jurkat cells
Experimental: as §3, with “The compounds were also tested in the T cell derived Jurkat cell line transfected with a luciferase reporter under control of an HIV long terminal repeat (LTR) promoter. Specifically,” for “Specifically,”

Jurkat cell line = test: in vitro; format: cell-based; conditions: Jurkat cells, knock down of cellular ATP
Experimental: as §3, with “The compounds were also tested in the T cell derived Jurkat cell line transfected with a luciferase reporter under control of an HIV long terminal repeat (LTR) promoter. Specifically,” for “Specifically,”

| Compound | Maximal inhibition of K-562 cell growth [1] [%] | Block of PMA-induced attachment of U937 cells (U937 cells) | Block of PMA-induced attachment of U937 cells (U937 cells; listed as bryostatin 1) | Attachment of U937 cells (attached cells as percent of total) (U937 cells) | Attachment of U937 cells (attached cells as percent of total) (U937 cells; listed as bryostatin 1) | Max signal (% of control) ([2]; HOS cells, LTR-luciferase signal) | Conc (uM) at Max ([2]; HOS cells, concentration at maximal LTR-luciferase signal) [µM] | pEC50 ([2]; Human immunodeficiency virus 1, HOS) | CCEC50 [3] | pEC50 ([4]; LTR-luciferase, incubated 24, 48 and 72 hours (time of the listed values not stated)) | Selectivity (CC50:EC50) ([4]; ratio of the CC50 to the EC50) | CC50 (Jurkat cell line) [nM] |
| --- | --- | --- | --- | --- | --- | --- | --- | --- | --- | --- | --- | --- |
| CCC/C=C/C=C/C(=O)O[C@H]1/C(=C/C(=O)OC)C[C@H]2C[C@H]([C@@H](C)O)OC(=O)C[C@H](O)C[C@@H]3C[C@H](OC(C)=O)C(C)(C)[C@](O)(C[C@@H]4C/C(=C/C(=O)OC)C[C@H](/C=C/C(C)(C)[C@]1(O)O2)O4)O3 [Bryostatin 1] | 31.8±9.2 | blocks the effect of the phorbol ester | blocks the effect of the phorbol ester in a dose-dependent manner | has much less effect on either response | much diminished effect | 157 % of control | 2.51 | 8.70 | >5 | – | – | – |
| CCCCCCCCCCCCCC(=O)O[C@@H]1[C@@H](C)[C@@]2(O)[C@@H](C=C(CO)C[C@]3(O)C(=O)C(C)=C[C@@H]23)[C@@H]2C(C)(C)[C@]12OC(C)=O [PMA, phorbol 12-myristate 13-acetate] | – | – | – | induces attachment | – | – | – | – | – | 10.00 | 1 | 0.1 |
